# Data as given in patent publication US6727237B2, “Inhibitors of bacterial NAD synthetase” (priority 1998, dated 2004).
# Experiments:
# [1] = molecular target: T1, bacterial NAD synthetase enzyme (Bacillus subtilis, UniProt P08164); assay: biochemical; format: biochemical
# T1 sequence (P08164 2-272 limits assumed): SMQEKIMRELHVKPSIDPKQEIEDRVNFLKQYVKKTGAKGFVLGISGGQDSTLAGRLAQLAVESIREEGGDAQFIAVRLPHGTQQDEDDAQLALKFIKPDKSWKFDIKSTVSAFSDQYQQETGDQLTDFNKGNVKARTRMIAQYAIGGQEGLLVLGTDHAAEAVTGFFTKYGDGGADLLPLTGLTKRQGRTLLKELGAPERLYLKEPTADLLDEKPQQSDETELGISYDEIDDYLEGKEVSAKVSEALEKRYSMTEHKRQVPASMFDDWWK
# [2] = system: Staphylococcus epidermitis; assay: Bacterial growth inhibition screen in LB media (absorbance 595 nm), percent inhibition; settings: S. epidermitis
# [3] = compound at 0.2 mM (Table 312A)
SMILES,"% Inhibition [1, 3] [%]",% Inhibition ([2]; concentration screened 10 uM) [%],% Inhibition ([1]; compound at 0.1 mM (Table 314)) [%],% Inhibition ([2]; concentration screened 100 uM) [%]
COC(=O)c1ccc2c(ccn2CCCCCCCCC[n+]2ccccc2)c1 [Compound 166],87.68,21.66,,
COC(=O)c1ccc2[nH]c(CCCCC[n+]3cccc4ccccc43)cc2c1 [Compound 488],17.65,2.72,,
O=[N+]([O-])c1ccc2[nH]c(CCCCCC[n+]3ccccc3)cc2c1 [Compound 333],,,26.29,100.00
COc1ccc2c(ccn2CCCCOC(=O)Cc2ccc([N+](C)(C)C)cc2)c1 [Compound 740],7.23,5.17,,
CC(C)c1ccc2[nH]c(CCCCOC(=O)c3ccc(N(C)C)cc3)cc2c1 [Compound 627],11.19,,,20.10
"O=[N+]([O-])c1ccc2c(ccn2CCCCCCO)c1 [Compound 862, 6-[N-(5-nitroindolyl)]hexan-1-ol]",9.05,48.29,,
Cc1ccc2[nH]c(CCCCCCC[n+]3cccc4ccccc43)cc2c1 [Compound 406],10.96,6.41,,
Fc1ccc2[nH]c(CCC[n+]3cccc4ccccc43)cc2c1 [Compound 450],7.90,7.45,,
Fc1cc(F)c2[nH]c(CCC[n+]3cccc4ccccc43)cc2c1 [Compound 408],7.04,1.88,,
COc1ccc2[nH]c(CCCC[n+]3ccc4ccccc4c3)cc2c1 [Compound 589],,29.35,24.98,
c1ccc(C(c2ccccc2)(c2ccccc2)c2ccc3[nH]c(CCCC[n+]4cccc5ccccc54)cc3c2)cc1 [Compound 445],5.43,11.21,,
O=C(c1ccccc1)c1ccc2[nH]c(CCCCCCCOC(=O)C(c3ccccc3)c3ccccc3)cc2c1 [Compound 676],,5.52,1.46,
COC(=O)c1ccc2[nH]c(CCC[n+]3cccc4ccccc43)cc2c1 [Compound 486],4.97,22.28,,
c1ccc2c[n+](CCCCCCc3cc4ccccc4[nH]3)ccc2c1 [Compound 501],4.98,,,7.93
c1ccc(Oc2ccc3[nH]c(CCCCCCC[n+]4ccc5ccccc5c4)cc3c2)cc1 [Compound 568],18.95,3.10,,
c1ccc(C(c2ccccc2)(c2ccccc2)c2ccc3[nH]c(CCCCCCC[n+]4ccc5ccccc5c4)cc3c2)cc1 [Compound 556],,60.18,18.19,
CC(C)c1ccc2[nH]c(CCCCCC[n+]3cccc4ccccc43)cc2c1 [Compound 429],13.01,3.06,,
COC(=O)c1ccc2[nH]c(CCCCC[n+]3ccccc3)cc2c1 [Compound 380],10.09,,,97.64
O=[N+]([O-])c1ccc2[nH]c(CCCCCCCC[n+]3cccc4ccccc43)cc2c1 [Compound 443],5.51,7.66,,
c1ccc(-c2ccc3[nH]c(CCCCC[n+]4ccccc4)cc3c2)cc1 [Compound 326],,6.27,16.11,
CN(C)c1ccc(C(=O)OCCCCCCCCc2cc3cc(C(F)(F)F)ccc3[nH]2)cc1 [Compound 611],15.13,,,9.67
CC(C)c1ccc2[nH]c(CCCCC[n+]3cccc4ccccc43)cc2c1 [Compound 428],26.53,5.85,,

SMILES,"% Inhibition [1, 3] [%]",% Inhibition ([2]; concentration screened 10 uM) [%],% Inhibition ([1]; compound at 0.1 mM (Table 314)) [%],% Inhibition ([2]; concentration screened 100 uM) [%]
c1ccc(C(c2ccccc2)(c2ccccc2)c2ccc3[nH]c(CCCCC[n+]4cccc5ccccc54)cc3c2)cc1 [Compound 446],13.78,3.69,,
c1cc[n+](CCCCCCc2cc3ccccc3[nH]2)cc1 [Compound 285],32.45,,,98.57
Fc1ccc2[nH]c(CCCCCCCC[n+]3cccc4ccccc43)cc2c1 [Compound 455],2.69,6.55,,
O=C(c1ccccc1)c1ccc2[nH]c(CCCCOC(=O)c3ccccc3-c3ccccc3)cc2c1 [Compound 648],5.82,,,14.57
O=[N+]([O-])c1ccc2[nH]c(CCCCCC[n+]3ccc4ccccc4c3)cc2c1 [Compound 549],14.08,3.13,,
CC(=O)c1ccc2[nH]c(CCCCCCCOC(=O)c3cccnc3)cc2c1 [Compound 673],1.81,1.50,,
CC(C)c1ccc2[nH]c(CCCCCCCC[n+]3ccc4ccccc4c3)cc2c1 [Compound 539],16.80,4.67,,
O=C(O)c1ccc2[nH]c(CCCCCC[n+]3ccccc3)cc2c1 [Compound 387],,,29.97,97.64
O=C(c1ccccc1)c1ccc2[nH]c(CCCCC[n+]3ccc4ccccc4c3)cc2c1 [Compound 572],31.02,,,96.57
Fc1ccc2[nH]c(CCCCCCC[n+]3ccc4ccccc4c3)cc2c1 [Compound 562],46.44,9.44,,
O=C(c1ccccc1)c1ccc2[nH]c(CCCCC[n+]3cccc4ccccc43)cc2c1 [Compound 464],13.50,35.45,,
CC(C)c1ccc2[nH]c(CCCCCCCCOC(=O)c3ccccc3-c3ccccc3)cc2c1 [Compound 632],,,,22.42
CC(C)c1ccc2[nH]c(CCCCCCCCOC(=O)c3ccncc3)cc2c1 [Compound 704],,19.07,,
C[n+]1cccc(C(=O)OCCCCCCCCCc2cc3cc([N+](=O)[O-])ccc3[nH]2)c1 [Compound 281],,84.23,,
O=C(OCCCCCCCCc1cc2cc(Oc3ccccc3)ccc2[nH]1)c1ccccc1-c1ccccc1 [Compound 623],,,,34.17
O=C(OCCCCCCCc1cc2cc(C(=O)c3ccccc3)ccc2[nH]1)c1ccncc1 [Compound 709],,12.94,,
CC(C)c1ccc2[nH]c(CCCCOC(=O)c3cccc(N(C)C)c3)cc2c1 [Compound 624],,,,19.16
O=C(OCCCCc1cc2cc(Oc3ccccc3)ccc2[nH]1)C(c1ccccc1)c1ccccc1 [Compound 657],,,,37.12
CC(C)c1ccc2[nH]c(CCCCCCCCOC(=O)C(c3ccccc3)c3ccccc3)cc2c1 [Compound 665],,,,12.75
FC(F)(F)c1ccc2[nH]c(CCCCCC[n+]3cccc4ccccc43)cc2c1 [Compound 471],,14.07,,
CC(=O)c1ccc2[nH]c(CCCCOC(=O)c3ccccc3-c3ccccc3)cc2c1 [Compound 639],,,,7.41
CN(C)c1ccc(C(=O)OCCCCCn2ccc3cc([N+](=O)[O-])ccc32)cc1 [Compound 843],,2.20,,

SMILES,"% Inhibition [1, 3] [%]",% Inhibition ([2]; concentration screened 10 uM) [%],% Inhibition ([1]; compound at 0.1 mM (Table 314)) [%],% Inhibition ([2]; concentration screened 100 uM) [%]
CN(C)c1ccc(C(=O)OCCCCCCCCc2cc3cc([N+](=O)[O-])ccc3[nH]2)cc1 [Compound 727],,42.23,,
O=C(CCc1cccnc1)OCCCCCCCCc1cc2cc([N+](=O)[O-])ccc2[nH]1 [Compound 728],,13.28,,
O=C(OCCCCCCCCc1cc2cc([N+](=O)[O-])ccc2[nH]1)c1ccccc1-c1ccccc1 [Compound 729],,8.24,,
O=C(OCCCCCCCCc1cc2ccc(C(F)(F)F)cc2[nH]1)c1cccnc1 [Compound 683],,9.26,,
O=C(OCCCCc1cc2cc(Oc3ccccc3)ccc2[nH]1)c1ccccc1-c1ccccc1 [Compound 621],,,,11.75
C[N+](C)(C)c1cccc(C(=O)OCCCCn2ccc3cc(OCc4ccccc4)ccc32)c1 [Compound 805],,50.87,,
O=C(OCCCCCCCc1cc2cc(C(F)(F)F)ccc2[nH]1)c1cccnc1 [Compound 655],,11.51,,
C[n+]1cccc(C(=O)OCCCCn2ccc3cc([N+](=O)[O-])ccc32)c1 [Compound 863],,4.72,,
CN(C)c1cccc(C(=O)OCCCCCCn2ccc3cc([N+](=O)[O-])ccc32)c1 [Compound 838],,17.65,,
O=C(OCCCCCCCc1cc2cc(C(F)(F)F)ccc2[nH]1)c1ccccc1-c1ccccc1 [Compound 613],,1.36,,
CC(C)c1ccc2[nH]c(CCCCCCCOC(=O)C(c3ccccc3)c3ccccc3)cc2c1 [Compound 664],,3.88,,
O=C(OCCCCc1cc2ccc(C(F)(F)F)cc2[nH]1)c1cccnc1 [Compound 681],,4.22,,
O=C(OCCCCCCCc1cc2cc(C(=O)c3ccccc3)ccc2[nH]1)c1cccnc1 [Compound 694],,2.59,,
CC(=O)c1ccc2[nH]c(CCCCCCCCOC(=O)c3ccncc3)cc2c1 [Compound 707],,3.61,,
CC(C)c1ccc2[nH]c(CCCCCCCOC(=O)c3cccc(N(C)C)c3)cc2c1 [Compound 625],,7.77,,
CN(C)c1ccc(C(=O)OCCCCc2cc3cc(Oc4ccccc4)ccc3[nH]2)cc1 [Compound 618],,,,11.06
O=[N+]([O-])c1cc([N+](=O)[O-])c2[nH]c(CCCCC[n+]3cccc4ccccc43)cc2c1 [Compound 416],,2.09,,
FC(F)(F)c1ccc2cc(CCCCCCC[n+]3cccc4ccccc43)[nH]c2c1 [Compound 400],,5.50,,
O=C(c1ccccc1)c1ccc2[nH]c(CCCCOC(=O)C(c3ccccc3)c3ccccc3)cc2c1 [Compound 675],,,,11.37
CN(C)c1ccc(C(=O)OCCCCCCCc2cc3cc(C(=O)c4ccccc4)ccc3[nH]2)cc1 [Compound 646],,1.09,,
